Assay results as given in patent publication US3954769A, “Dibenzo[b,f]thiepins” (Hoffman-La Roche Inc., priority 1973, dated 1976).
“Also recorded” adds a separate entry of the source.

Experiments:
mice = assay: Determination of toxicity in mice (24-hour-values); format: in vivo; settings: in words
From the text: (§1) III. Determination of toxicity

[1] = Determination of toxicity in mice (24-hour-values); format: in vivo; settings: mouse, in vivo, po, read-out: ED50 (toxicity)
From the text: as §1

[2] = test system: homovanillinic acid (turnover of dopamine in the basal ganglions); assay: Determination of homovanillinic acid (HVA), turnover of dopamine in brain; format: in vivo, rats; settings: for activity in HVA test (in words): compared with chlorpromazine; for Increase in HVA, %: rats, two hours prior to being killed, titer in untreated rats set at 100%
Method: II. Determination of Homovanillinic Acid
Two hours prior to being killed, rats are injected with the test substance.
Thereafter, the homovanillinic acid is extracted from the supernatant portion of a homogenous mixture of the brains into butyl acetate and later into aqueous solution and is oxidized with potassium ferric cyanide to a fluorescent dimer. […] The homovanillinic acid titer in untreated rats is arbitrarily set at 100%.

rats = assay: Determination of cataleptic effect (undesired side effect); format: in vivo; settings: in words
Method: (§2) I. Determination of cataleptic effect (undesired side effect)
(§3) A cataleptic effect ("wax-like rigidity", that is, abnormally long retention of an enforced body position) is considered to be a disturbing side effect with central depressants and neuroleptically active compounds and indicates motor disturbances. […] The following compounds were tested:
(§4) The test animals are considered to be cataleptic when the homolateral extremities remain in the crossed position for at least 10 seconds. The number of cataleptic animals is recorded every 30 minutes over a 6-hour period. The ED50 is the dose at which 50% of the animals are cataleptic.

[3] = as above; format: in vivo, rats; settings: rat, in vivo, ip; rats, intraperitoneally; recorded every 30 minutes over a 6-hour period; read-out: ED50 (dose at which 50% of the animals are cataleptic)
Method: as §2, §3, §4

SMILES | toxicity (in words) (mice) | LD50 at 24 h [1] [mg/kg] | activity in HVA test (in words) [2] | Increase in HVA, % ([2]; 50 mg/kg. p.o.) [%] | cataleptic effect (in words) (rats; maleate) | TD50 at 6 h [3] [mg/kg] | Increase in HVA, % ([2]; 20 mg/kg. p.o.) [%] | cataleptic effect (in words) (rats)
CSc1ccc2c(c1)C(N1CCN(C)CC1)Cc1cc(C)ccc1S2.O=C(O)/C=C\C(=O)O (centres unmarked) [Product B, 1-[10,11-dihydro-2-methyl-8-(methylthio)-dibenzo[b,f]thiepin-10-yl]-4-methylpiperazine maleate] | superior to chlorpromazine | 450 | nearly as potent as that of chlorpromazine | 320 | considerably lower cataleptic effect than chlorpromazine; also recorded: superior to chlorpromazine due to the lower cataleptic side effect | 25 |  | 
COc1ccc2c(c1)CC(N1CCN(C)CC1)c1cc(SC)ccc1S2.O=C(O)/C=C\C(=O)O (centres unmarked) [Product A, 1-[10,11-dihydro-2-methoxy-8-(methylthio)-dibenzo[b,f]thiepin-10-yl]-4-methylpiperazine maleate] | superior to chlorpromazine | 1880 | somewhat less active than chlorpromazine | 185 | no cataleptic effect; also recorded: complete absence of cataleptic side effect | > 100 |  | 
CN(C)CCCN1c2ccccc2Sc2ccc(Cl)cc21 [Chlorpromazine, reference compound] |  |  |  |  |  |  | 320 | does demonstrate cataleptic effects
